Test results as given in patent US8029770B2 (Rutgers, The State University, priority 2003, dated 2011).
Marks after values point to notes of the source that are not given here.

Tested on: apoptotic sunburn cells in the epidermis of SKH-1 mice
Assay: UVB-induced apoptotic sunburn cells in the epidermis of SKH-1 mice after topical application
Format: in vivo, mouse
Settings: for activity in stimulating UVB-induced apoptosis in mouse skin, compared with caffeine: first study of compounds structurally related to caffeine, given after UVB; for Percent Apoptotic Sunburn Cells: 6.2 μmole in 100 μL acetone right after UVB 30 mJ/cm^2 and at 30 and 120 min, 6 h after UVB; for activity in stimulating UVB-induced apoptosis, compared with caffeine: similar study, acetone:water (90:10) as vehicle (Table 1)
Procedure: Chemicals and Animals. […] Female SKH-1 hairless mice (6 to 7 weeks old) were purchased from the Charles River Breeding Laboratories, and the animals were kept in an animal facility for at least one week before use at 7 to 8 weeks of age. Mice were given water and PURINA® Laboratory CHOW® 5001 diet from Ralston-Purina (St. […] For the analysis conducted herein, 5 mice were used per group. Treatment of Mice with UVB. […] The radiation was further calibrated with a model IL-1700 research radiometer/photometer (International Light, Newburyport, Mass.). Measurement of apoptotic sunburn cells. Identification of apoptoic sunburn cells was based morphologically on cell shrinkage and nuclear condensation due to fragmentation of the cells. […] Six hours after UVB, the animals were sacrificed and apoptotic sunburn cells in the epidermis were determined morphologically. […] Six hours after UVB, the animals were sacrificed and apoptotic sunburn cells in the epidermis were determined morphologically. […] Acetone Formulation. […] Six hours after UVB, the animals were sacrificed and apoptotic sunburn cells in the epidermis were determined morphologically. […] […] Formulations. […] Six hours after UVB the animals were sacrificed and apoptotic sunburn cells in the epidermis were determined morphologically. […] Six hours after UVB the animals were sacrificed and apoptotic sunburn cells in the epidermis were determined morphologically.

[1] = Table 1, vs acetone group, 6.2 μmole x3 after UVB 30 mJ/cm^2, 6 h

| Structure (SMILES) | activity in stimulating UVB-induced apoptosis in mouse skin, compared with caffeine | Percent Apoptotic Sunburn Cells (mean ± S.E.) | % Induction [1] [%] | activity in stimulating UVB-induced apoptosis, compared with caffeine | also measured |
| --- | --- | --- | --- | --- | --- |
| Cn1c(=O)c2ncn(C)c2n(C)c1=O [1,3,9-trimethylxanthine] | somewhat less active than caffeine | – | – | – | – |
| Cn1c(=O)[nH]c2ncn(C)c2c1=O [1,7-dimethylxanthine] | as active as caffeine | – | – | – | – |
| Cn1c(=O)c2c(nc(Br)n2C)n(C)c1=O [8-bromocaffeine] | little or no activity | – | – | – | – |
| Cn1c(=O)c2c(nc(Cl)n2C)n(C)c1=O [8-chlorocaffeine] | little or no activity | – | – | – | – |
| Cn1c(=O)c2c(ncn2C)n(C)c1=O [Caffeine Citrated, citrated caffeine] | – | 0.757 ± 0.199^b % | 271 | – | – |
| CC(=O)CCCCn1c(=O)c2c(ncn2C)n(C)c1=O [Pentoxifylline, pentoxifylline] | little or no activity | 0.318 ± 0.068^ % | 56 | about half as active as caffeine | – |
| O=C([O-])c1ccccc1.[Na+] [Sodium benzoate, sodium benzoate] | – | – | – | – | Percent Sunburn Cells, UVB (6.2 μmole (each) in 100 μL acetone:water (9:1) immediately after UVB 30 mJ/cm^2 and at 30 and 120 min, 6 h, mean ± S.E.): 0.27 ± 0.08%; enhancement of UVB-induced apoptosis in the epidermis, applied in DERMABASE (DERMABASE vehicle, equimolar amounts (Table 4)): inactive; % Induction (Table 2, vs acetone, 6.2 μmole in acetone:water (9:1)): 29% |
| Cn1cnc2c1c(=O)[nH]c(=O)n2C [Theobromine, 3,7-dimethylxanthine] | little or no activity | 0.358 ± 0.064^ % | 75 | about half as active as caffeine | – |
| Cn1c(=O)c2[nH]cnc2n(C)c1=O [Theophylline, 1,3-dimethylxanthine] | as active as caffeine | 0.703 ± 0.171^b % | 245 | somewhat more active than caffeine | – |
| O=c1[nH]c(=O)c2[nH]cnc2[nH]1 [Xanthine, xanthine] | little or no activity | 0.221 ± 0.046^ % | 8 | – | – |
